The target in series [1] is T1, Recombinant human farnesyl transferase (FTase) (Homo sapiens, UniProt P49356).
T1 construct: purchased Crelux (Martinsried, Germany)
In words: FTase fluorescence assay (farnesylation of dansyl-GCVLS peptide). In kind it is biochemical. To be noted: recombinant human FTase 2.5 nM, Dansyl-GCVLS 85 nM, FPP 30 nM, 30° C., 50 minutes.

A further series relates to T24/83 cells. Put plainly: T24/83 cell proliferation assay (CellTiter-Glo). In kind it is cell-based. Particulars: Homo sapiens, 96 h, 4 days. An excerpt:
T24/83 cell line was purchased from the European Collection of Authenticated Cell Cultures (Salisbury, UK). Recombinant human farnesyl transferase (FTase) and geranylgeranyl transferase type-1 (GGTase) were obtained from Crelux (Martinsried, Germany). Dansyl labelled GCVLS peptide was purchased from Bachem (Torrance, CA), and Dansyl labelled GCVLL peptide was purchased from Bio Synthesis (Lewisville, TX). Farnesyl Pyrophosphate (FPP) and Geranylgeranyl pyrophosphate (GGPP) were purchased from Cayman (Ann Arbor, MI).
Mutant oncogenic HRAS was originally identified in a human bladder carcinoma cell line called T24. T24/83 is a subline of T24 established more recently that has more favorable growth characteristics for in vitro assays. Thus, T24/83 is a well-characterized mutant HRAS-dependent cell line that is an ideal model for quantifying the HRAS-dependent antitumor activity of farnesyltransferase inhibitors.
T24/83 cells were inoculated into 384 well plates at 100 cells/well, and grown in the presence of inhibitor, 0.7% DMSO as a negative control, or 100 μM tipifarnib as a positive control, at 37° C. for 4 days. Cell viability was assessed using the CellTiter-Glo Kit (CTG) (Promega; Madison, WI). Luminescence was recorded using EnVision microplate reader (PerkinElmer; Waltham, MA). In this assay, tipifarmib was used as a positive control. All the assay plates passed the QC criteria (S/B, Z-factor).
In general terms: ATP-based viability assays read luminescence as a measure of living cells.

A short description of series [2]: Metabolic stability in human liver microsomes. The class given is in vitro ADME. Particulars: human liver microsomes 0.5 mg protein/mL, test compound 1 μM, 37° C.; read-out: T1/2 in HLM. The method, then:
(§1) The metabolic stability of the compounds disclosed herein was determined by measuring half-life (T1/2) of the compounds in the presence of mouse liver microsomes (MLM) or human liver microsomes (BILM).
(§2) Intermediate solution: 5 μL of compound and control stock solution (10 mM in dimethyl sulfoxide (DMSO)) were diluted with 495 μL of acetonitrile (ACN) (intermediate solution concentration: 100 μM, 99% ACN).
(§3) Working solution: 50 μL of compound and control intermediate solution (100 μM) were diluted with 450 μL of 100 mM potassium phosphate buffer (working solution concentration: 10 μM, 9.9% ACN).
(§4) Controls used in this assay: Testosterone, Diclofenac, and Propafenone.
(§5) Preparation Procedure: The appropriate amount of NADPH powder was weighed and diluted into a 10 mM MgCl2 solution (working solution concentration: 10 unit/mL; final concentration in reaction system: 1 unit/mL).
(§6) The appropriate concentrations of microsome working solutions were prepared in 100 mM potassium phosphate buffer.
(§7) Cold (4° C.) acetonitrile (CAN) containing 200 ng/mL tolbutamide and 200 ng/mL labetalol as internal standards (IS) was used as the stop solution.
(§8) Using an Apricot automation workstation, 10 μL/well of compound working solution were added to all 96-well reaction plates except the blank (T0, T5, T10, T20, T30, T60, and NCF60).
(§9) An Apricot automation workstation was used to add 80 μL/well of microsome solution to all reaction plates (Blank, T0, T5, T10, T20, T30, T60, and NCF60).
(§10) All reaction plates containing mixtures of compound and microsomes were pre-incubated at 37° C. for 10 minutes.
(§11) An Apricot automation workstation was used to add 10 μL/well of 100 mM potassium phosphate buffer to reaction plate NCF60.
(§12) Reaction plate NCF60 was incubated at 37° C. for 60 minutes.
(§13) After pre-incubation, an Apricot automation workstation was used to add 10 μL/well of NADPH regenerating system to every reaction plate except NCF60 (Blank, T0, T5, T10, T20, T30, and T60) to start the reaction. Final concentration of each component in incubation medium: Microsome (0.5 mg protein/mL); Test Compound (1 μM); Control Compound (1 μM); Acetonitrile (0.99%); DMSO (0.01%).
(§14) The reaction plates were incubated at 37° C. for 0 minute (T0, stop solution was added prior to microsome and NADPH solutions), 5 minutes (T5), 10 minutes (T10), 20 minutes (T20), 30 minutes (T30), 60 minutes (T60).
(§15) An Apricot automation workstation was used to add 300 μL/well of stop solution to each reaction plate at its appropriate end time point to terminate the reaction.
(§16) Each plate was sealed and shaken for 10 minutes.
(§17) After shaking, each plate was centrifuged at 4000 rpm and 4° C. for 20 minutes.
(§18) During centrifugation, an Apricot automation workstation was used to add 300 µL/well of HPLC grade water to eight new 96-well plates.
(§19) After centrifugation, an Apricot automation workstation was used to transfer 100 μL of supernatant from each reaction plate to its corresponding bioanaylsis plate.
(§20) Each bioanalysis plate was sealed and shaken for 10 minutes prior to LC-MS/MS analysis.
(§21) The equation of first order kinetics was used to calculate T1/2 and CLint(mic) (μL/min/mg).
(Liver microsomes are a subcellular fraction often used to study metabolism.)

Series [3] is described as follows: Metabolic stability in mouse liver microsomes. The class given is in vitro ADME. To be noted: CD-1 mouse liver microsomes 0.5 mg protein/mL, test compound 1 μM, 37° C.; read-out: T1/2 in MLM. As to the method: as §1, §2, §3, §4, §5, §6, §7, §8, §9, §10, §11, §12, §13, §14, §15, §16, §17, §18, §19, §20, §21

For the compound `Cn1cncc1[C@@]1(O)c2ccc(Cl)c(c2)OCCc2cccc(c2)-c2cc(=O)[nH]c3ccc1cc23` [(S)-25, (S)-4^4-chloro-3-hydroxy-3-(1-methyl-1H-imidazol-5-yl)-2^1,2^2-dihydro-5-oxa-2(4,6)-quinolina-1,4(1,3)-dibenzenacycloheptaphan-2^2-one], the IC50 is at most 0.01 µM in series [1] and 0.05 to 0.5 µM in the series with T24/83 cells. The half-life at 1 μM in series [2] is below 30 min; in series [3] it was below 5 min.
In the same order, the values of `[2H]C([2H])([2H])n1c(=O)cc2c3cc(ccc31)[C@@](O)(c1cncn1C)c1ccc(Cl)c(c1)OCCc1cccc-2c1` [(S)-28, (S)-4^4-chloro-3-hydroxy-2^1-(methyl-d3)-3-(1-methyl-1H-imidazol-5-yl)-2^1,2^2-dihydro-5-oxa-2(4,6)-quinolina-1,4(1,3)-dibenzenacycloheptaphan-2^2-one] are at most 0.01 µM, at most 0.05 µM, below 30 min and below 5 min.
In the case of `Cn1cncc1C1(O)c2ccc(Cl)c(c2)OCc2cccc(c2)-c2cc(=O)[nH]c3ccc1cc23` (stereo not drawn) [Compound 13, 4^4-chloro-3-hydroxy-3-(1-methyl-1H-imidazol-5-yl)-2^1,2^2-dihydro-5-oxa-2(4,6)-quinolina-1,4(1,3)-dibenzenacyclohexaphan-2^2-one], the IC50 in series [1] lay in the range of 0.01 to 0.1 µM; in the series on T24/83 cells it was 0.05 to 0.5 µM.
For the compound `Cn1cncc1C1(O)c2cccc(c2)OCCc2cccc(c2)-c2cc(=O)[nH]c3ccc1cc23` (stereo not drawn) [Compound 22, 3-hydroxy-3-(1-methyl-1H-imidazol-5-yl)-2^1,2^2-dihydro-5-oxa-2(4,6)-quinolina-1,4(1,3)-dibenzenacycloheptaphan-2^2-one], the IC50 in series [1] was 0.01 to 0.1 µM; in the series on T24/83 cells, 0.05 to 0.5 µM.
The corresponding values for `Cn1cncc1C1(O)c2cccc(c2)OCCc2cccc(c2)-c2cc(=O)n(C)c3ccc1cc23` (stereo not drawn) [Compound 23, 3-hydroxy-2^1-methyl-3-(1-methyl-1H-imidazol-5-yl)-2^1,2^2-dihydro-5-oxa-2(4,6)-quinolina-1,4(1,3)-dibenzenacycloheptaphan-2^2-one] are at most 0.01 µM and at most 0.05 µM.
In the same order, the values of `COc1cc2c3cc(ccc3n1)C(O)(c1cncn1C)c1ccc(Cl)c(c1)OCCc1cccc-2c1` (stereo not drawn) [Compound 24, 4^4-chloro-2^2-methoxy-3-(1-methyl-1H-imidazol-5-yl)-5-oxa-2(4,6)-quinolina-1,4(1,3)-dibenzenacycloheptaphan-3-ol] are above 0.1 µM and above 0.5 µM.
`Cn1cncc1C1(O)c2ccc(Cl)c(c2)OCCc2cccc(c2)-c2cc(=O)n(C)c3ccc1cc23` (stereo not drawn) [Compound 26, 4^4-chloro-3-hydroxy-2^1-methyl-3-(1-methyl-1H-imidazol-5-yl)-2^1,2^2-dihydro-5-oxa-2(4,6)-quinolina-1,4(1,3)-dibenzenacycloheptaphan-2^2-one]: the IC50 in series [1] lay within 0.01 to 0.1 µM; with T24/83 cells it was 0.05 to 0.5 µM.
The corresponding values for `COc1cc2c3cc(ccc3n1)C(O)(c1cncn1C)c1cccc(c1)COc1cccc-2c1` (stereo not drawn) [Compound 40, 2^2-methoxy-3-(1-methyl-1H-imidazol-5-yl)-6-oxa-2(4,6)-quinolina-1,4(1,3)-dibenzenacyclohexaphan-3-ol] are above 0.1 µM and 0.05 to 0.5 µM.
Turning to `Cn1cncc1C1(O)c2cccc(c2)COc2cccc(c2)-c2cc(=O)[nH]c3ccc1cc23` (stereo not drawn) [Compound 41, 3-hydroxy-3-(1-methyl-1H-imidazol-5-yl)-2^1,2^2-dihydro-6-oxa-2(4,6)-quinolina-1,4(1,3)-dibenzenacyclohexaphan-2^2-one], the results for the IC50 (in series [1]; with T24/83 cells) were 0.01 to 0.1 µM and 0.05 to 0.5 µM, respectively.
`Cn1cncc1C1(O)c2cccc(c2)COc2cccc(c2)-c2cc(=O)n(C)c3ccc1cc23` (stereo not drawn) [Compound 42, 3-hydroxy-2^1-methyl-3-(1-methyl-1H-imidazol-5-yl)-2^1,2^2-dihydro-6-oxa-2(4,6)-quinolina-1,4(1,3)-dibenzenacyclohexaphan-2^2-one]: the IC50 in series [1] was at most 0.01 µM; with T24/83 cells, at most 0.05 µM.
As to `Cn1cncc1C1(O)c2ccc(Cl)c(c2)COc2cccc(c2)-c2cc(=O)[nH]c3ccc1cc23` (stereo not drawn) [Compound 44, 4^4-chloro-3-hydroxy-3-(1-methyl-1H-imidazol-5-yl)-2^1,2^2-dihydro-6-oxa-2(4,6)-quinolina-1,4(1,3)-dibenzenacyclohexaphan-2^2-one], the IC50 in series [1] was at most 0.01 µM; in the series on T24/83 cells, 0.05 to 0.5 µM.
The corresponding values for `COc1cc2c3cc(ccc3n1)C(O)(c1cncn1C)c1cnc(C#N)c(c1)COc1cccc-2c1` (stereo not drawn) [Compound 60, 3-hydroxy-2^2-methoxy-3-(1-methyl-1H-imidazol-5-yl)-6-oxa-2(4,6)-quinolina-4(3,5)-pyridina-1(1,3)-benzenacyclohexaphane-4^6-carbonitrile] are 0.01 to 0.1 µM and above 0.5 µM.
On to `[2H]C([2H])([2H])n1c(=O)cc2c3cc(ccc31)C(O)(c1cncn1C)c1cnc(C#N)c(c1)COc1cccc-2c1` (stereo not drawn) [Compound 61, 3-hydroxy-2^1-(methyl-d3)-3-(1-methyl-1H-imidazol-5-yl)-2^2-oxo-2^1,2^2-dihydro-6-oxa-2(4,6)-quinolina-4(3,5)-pyridina-1(1,3)-benzenacyclohexaphane-4^6-carbonitrile], for which the IC50 is at most 0.01 µM in series [1] and 0.05 to 0.5 µM in the series with T24/83 cells.
The corresponding values for `[2H]C([2H])([2H])n1c(=O)cc2c3cc(ccc31)C(N)(c1cncn1C)c1cnc(C#N)c(c1)COc1cccc-2c1` (stereo not drawn) [Compound 62, 3-amino-2^1-(methyl-d3)-3-(1-methyl-1H-imidazol-5-yl)-2^2-oxo-2^1,2^2-dihydro-6-oxa-2(4,6)-quinolina-4(3,5)-pyridina-1(1,3)-benzenacyclohexaphane-4^6-carbonitrile] are at most 0.01 µM and above 0.5 µM.
Consider `Cn1cncc1C1(O)c2ccc(C#N)c(c2)COc2cccc(c2)-c2cc(C#N)nc3ccc1cc23` (stereo not drawn) [Compound 72, 3-hydroxy-3-(1-methyl-1H-imidazol-5-yl)-6-oxa-2(4,6)-quinolina-1,4(1,3)-dibenzenacyclohexaphane-2^2 4^4-dicarbonitrile], for which the IC50 in series [1] was at most 0.01 µM; in the series with T24/83 cells it was 0.05 to 0.5 µM.
The corresponding values for `Cn1cncc1C1(O)c2ccc(C#N)c(c2)COc2cccc(c2)-c2cc(C(N)=O)nc3ccc1cc23` (stereo not drawn) [Compound 73, 4^4-cyano-3-hydroxy-3-(1-methyl-1H-imidazol-5-yl)-6-oxa-2(4,6)-quinolina-1,4(1,3)-dibenzenacyclohexaphane-2^2-carboxamide] are 0.01 to 0.1 µM and 0.05 to 0.5 µM.

In general, IC50 refers to the concentration at which inhibition is half-maximal.

Values taken from US12018011B2, “Macrocyclic compounds and compositions, and methods of preparing and using the same” (Kura Oncology, Inc., priority 2021, dated 2024).
